# From PMC5218480 (PLoS ONE, 2017)
# System: MV-4-11 cells
# Experiment: Gene expression microarray analysis (Affymetrix PrimeView) and GSEA
# Type: cell-based, human
# Parameters: RFU PODN (11730768_x_at) / Fold change /veh PODN (11730768_x_at) / RFU LINC00158 (11744669_a_at) / Fold change /veh LINC00158 (11744669_a_at) / RFU DUSP10 (11751237_a_at) / Fold change /veh DUSP10 (11751237_a_at) / RFU ID3 (11757404_x_at) / Fold change /veh ID3 (11757404_x_at) / RFU PLEKHG5 (11737974_s_at) / Fold change /veh PLEKHG5 (11737974_s_at) / RFU LRRC4B (11730491_at) / Fold change /veh LRRC4B (11730491_at) / RFU GIMAP4 (11747438_a_at) / Fold change /veh GIMAP4 (11747438_a_at) / RFU KRT8 (11758183_x_at) / Fold change /veh KRT8 (11758183_x_at) / RFU CNN1 (11734310_a_at) / Fold change /veh CNN1 (11734310_a_at) / RFU VPS37D (11726825_at) / Fold change /veh VPS37D (11726825_at) / RFU C10orf10 (11716522_x_at) / Fold change /veh C10orf10 (11716522_x_at) / RFU KIR2DL2 /// KIR2DL4 /// KIR2DL5A /// KIR2DL5B /// KIR2DS1 /// KIR2DS2 /// KIR2DS3 /// KIR2DS4 /// KIR3DL3 /// KIR3DL3 /// KIR3DS1 (11738374_at) / Fold change /veh KIR2DL2 /// KIR2DL4 /// KIR2DL5A /// KIR2DL5B /// KIR2DS1 /// KIR2DS2 /// KIR2DS3 /// KIR2DS4 /// KIR3DL3 /// KIR3DL3 /// KIR3DS1 (11738374_at) / RFU C1QL1 (11718748_at) / Fold change /veh C1QL1 (11718748_at) / RFU TMPRSS4 (11747572_a_at) / Fold change /veh TMPRSS4 (11747572_a_at) / RFU HAMP (11756126_x_at) / Fold change /veh HAMP (11756126_x_at) / RFU RNFT2 (11725882_a_at) / Fold change /veh RNFT2 (11725882_a_at) / RFU NR4A2 (11747474_a_at) / Fold change /veh NR4A2 (11747474_a_at) / RFU ABCC12 (11746883_a_at) / Fold change /veh ABCC12 (11746883_a_at) / RFU TMEM136 (11760407_x_at) / Fold change /veh TMEM136 (11760407_x_at) / RFU CLDN22 /// WWC2 (11732394_at) / Fold change /veh CLDN22 /// WWC2 (11732394_at) / RFU HLA-DPB1 (11760878_x_at) / Fold change /veh HLA-DPB1 (11760878_x_at) / RFU SPINT1 (11716480_a_at) / Fold change /veh SPINT1 (11716480_a_at) / RFU GAP43 (11754022_s_at) / Fold change /veh GAP43 (11754022_s_at) / RFU A4GNT (11735810_at) / Fold change /veh A4GNT (11735810_at) / RFU PRB3 (11715151_x_at) / Fold change /veh PRB3 (11715151_x_at) / RFU TUBB4B (11761932_at) / Fold change /veh TUBB4B (11761932_at) / RFU CAPN14 (11732068_a_at) / Fold change /veh CAPN14 (11732068_a_at) / RFU TMCC2 (11721928_a_at) / Fold change /veh TMCC2 (11721928_a_at) / RFU IRGQ (11745062_a_at) / Fold change /veh IRGQ (11745062_a_at) / RFU FAM174B (11720279_a_at) / Fold change /veh FAM174B (11720279_a_at) / RFU TMPRSS4 (11748680_a_at) / Fold change /veh TMPRSS4 (11748680_a_at) / RFU FAM212B (11763350_a_at) / Fold change /veh FAM212B (11763350_a_at) / RFU PLEKHG5 (11743358_a_at) / Fold change /veh PLEKHG5 (11743358_a_at) / RFU ZSCAN30 (11745921_a_at) / Fold change /veh ZSCAN30 (11745921_a_at) / RFU CMKLR1 (11741424_a_at) / Fold change /veh CMKLR1 (11741424_a_at) / RFU LOC101060620 /// MAPK8IP1 (11723275_at) / Fold change /veh LOC101060620 /// MAPK8IP1 (11723275_at) / RFU SPTSSB (11747773_x_at) / Fold change /veh SPTSSB (11747773_x_at) / RFU PRSS12 (11739890_at) / Fold change /veh PRSS12 (11739890_at) / RFU BIN1 (11741810_x_at) / Fold change /veh BIN1 (11741810_x_at) / RFU WNT11 (11732464_a_at) / Fold change /veh WNT11 (11732464_a_at) / RFU C10orf10 (11716521_a_at) / Fold change /veh C10orf10 (11716521_a_at) / RFU C5orf56 (11738089_at) / Fold change /veh C5orf56 (11738089_at) / RFU CYB561 (11721691_x_at) / Fold change /veh CYB561 (11721691_x_at) / RFU ANKRD19P (11752326_a_at) / Fold change /veh ANKRD19P (11752326_a_at) / RFU OR2T12 /// OR2T33 /// OR2T8 (11738714_s_at) / Fold change /veh OR2T12 /// OR2T33 /// OR2T8 (11738714_s_at) / RFU VCAN (11748164_a_at) / Fold change /veh VCAN (11748164_a_at) / RFU JSRP1 (11732532_at) / Fold change /veh JSRP1 (11732532_at) / RFU KRTAP10-11 (11738290_x_at) / Fold change /veh KRTAP10-11 (11738290_x_at) / RFU MYO3A (11730013_a_at) / Fold change /veh MYO3A (11730013_a_at) / RFU EBF3 (11725865_a_at) / Fold change /veh EBF3 (11725865_a_at) / RFU CAMK2N1 (11719241_x_at) / Fold change /veh CAMK2N1 (11719241_x_at) / RFU C5orf56 (11738088_a_at) / Fold change /veh C5orf56 (11738088_a_at) / RFU OLFML3 (11715873_a_at) / Fold change /veh OLFML3 (11715873_a_at) / RFU LOC100653217 /// NTM (11731650_a_at) / Fold change /veh LOC100653217 /// NTM (11731650_a_at) / RFU MAPK11 (11762145_a_at) / Fold change /veh MAPK11 (11762145_a_at) / RFU FIZ1 (11724087_x_at) / Fold change /veh FIZ1 (11724087_x_at) / RFU OASL (11726364_x_at) / Fold change /veh OASL (11726364_x_at) / RFU SOX15 (11748057_x_at) / Fold change /veh SOX15 (11748057_x_at) / RFU CD79A (11719716_a_at) / Fold change /veh CD79A (11719716_a_at) / RFU HIST1H1D (11736915_at) / Fold change /veh HIST1H1D (11736915_at) / RFU CASKIN2 (11723855_a_at) / Fold change /veh CASKIN2 (11723855_a_at) / RFU LOC730098 (11760151_x_at) / Fold change /veh LOC730098 (11760151_x_at) / RFU OR4N2 (11742367_at) / Fold change /veh OR4N2 (11742367_at) / RFU PRRT2 (11749266_a_at) / Fold change /veh PRRT2 (11749266_a_at) / RFU SNX32 (11753110_a_at) / Fold change /veh SNX32 (11753110_a_at) / RFU CDHR5 (11726645_a_at) / Fold change /veh CDHR5 (11726645_a_at) / RFU RCAN1 (11760418_a_at) / Fold change /veh RCAN1 (11760418_a_at) / RFU FAM167A (11723789_a_at) / Fold change /veh FAM167A (11723789_a_at) / RFU FAM26E (11764081_at) / Fold change /veh FAM26E (11764081_at) / RFU ISYNA1 (11749810_s_at) / Fold change /veh ISYNA1 (11749810_s_at) / RFU ACY1 (11761880_at) / Fold change /veh ACY1 (11761880_at) / RFU 11764098_at / Fold change /veh 11764098_at / RFU SAMD14 (11745864_x_at) / Fold change /veh SAMD14 (11745864_x_at) / RFU NPB (11741838_a_at) / Fold change /veh NPB (11741838_a_at) / RFU TMPRSS6 (11731388_a_at) / Fold change /veh TMPRSS6 (11731388_a_at) / RFU KRTAP10-2 (11738614_at) / Fold change /veh KRTAP10-2 (11738614_at) / RFU ARHGAP8 /// PRR5-ARHGAP8 (11727945_x_at) / Fold change /veh ARHGAP8 /// PRR5-ARHGAP8 (11727945_x_at) / RFU KRTAP5-7 /// NADSYN1 (11734609_at) / Fold change /veh KRTAP5-7 /// NADSYN1 (11734609_at) / RFU RASL12 (11751679_a_at) / Fold change /veh RASL12 (11751679_a_at) / RFU CDKN2B (11736163_a_at) / Fold change /veh CDKN2B (11736163_a_at) / RFU PRF1 (11729649_at) / Fold change /veh PRF1 (11729649_at) / RFU, ZNF638 /// ZNF638-IT1 / Fold change vs veh, ZNF638 /// ZNF638-IT1 / RFU, PANK3 / Fold change vs veh, PANK3 / RFU, SH3YL1 / Fold change vs veh, SH3YL1 / RFU, ZEB2 / Fold change vs veh, ZEB2 / RFU, NRIP1 / Fold change vs veh, NRIP1 / RFU, PTTG1IP / Fold change vs veh, PTTG1IP / RFU, CAPN2 / Fold change vs veh, CAPN2 / RFU, MED14 / Fold change vs veh, MED14 / RFU, SNORA58 / Fold change vs veh, SNORA58 / RFU, C1orf63 / Fold change vs veh, C1orf63 / RFU, LRRFIP1 / Fold change vs veh, LRRFIP1 / RFU, NDUFAF7 / Fold change vs veh, NDUFAF7 / RFU, SLC12A2 / Fold change vs veh, SLC12A2 / RFU, IBTK / Fold change vs veh, IBTK / RFU, ESF1 / Fold change vs veh, ESF1 / Fold change vs veh, TMEM50B / RFU, TAOK1 / Fold change vs veh, TAOK1 / RFU, ACBD3 / Fold change vs veh, ACBD3 / RFU, TMA16 / Fold change vs veh, TMA16 / RFU, RWDD3 / Fold change vs veh, RWDD3 / RFU, BCAT1 / Fold change vs veh, BCAT1 / RFU, EDEM3 / Fold change vs veh, EDEM3 / RFU, TMEM33 / Fold change vs veh, TMEM33 / RFU, WDR75 / Fold change vs veh, WDR75 / RFU, AHCTF1 / Fold change vs veh, AHCTF1 / RFU, TFRC / Fold change vs veh, TFRC / RFU, ZDHHC17 / Fold change vs veh, ZDHHC17 / RFU, NOM1 / Fold change vs veh, NOM1 / RFU, ARL8B / Fold change vs veh, ARL8B / RFU, ZBTB11 / Fold change vs veh, ZBTB11 / RFU, TAMM41 / Fold change vs veh, TAMM41 / RFU, KIAA1704 /// LOC100996395 / Fold change vs veh, KIAA1704 /// LOC100996395 / RFU, ING1 / Fold change vs veh, ING1 / RFU, TRMT61B / Fold change vs veh, TRMT61B / RFU, FUBP3 / Fold change vs veh, FUBP3 / RFU, TP53 / Fold change vs veh, TP53 / RFU, TNKS2 / Fold change vs veh, TNKS2 / RFU, ZFP14 / Fold change vs veh, ZFP14 / RFU, ACTR2 / Fold change vs veh, ACTR2 / RFU, PPP3R1 / Fold change vs veh, PPP3R1 / RFU, PIK3R1 / Fold change vs veh, PIK3R1 / RFU, HNRNPA1 / Fold change vs veh, HNRNPA1 / RFU, RNF170 / Fold change vs veh, RNF170 / RFU, ZNF28 / Fold change vs veh, ZNF28 / RFU, RNGTT / Fold change vs veh, RNGTT / RFU, OGT / Fold change vs veh, OGT / RFU, BRD1 / Fold change vs veh, BRD1 / RFU, MARS / Fold change vs veh, MARS / RFU, ZNF655 / Fold change vs veh, ZNF655 / RFU, FAHD1 / Fold change vs veh, FAHD1 / RFU, BDP1 / Fold change vs veh, BDP1 / RFU, LRRCC1 / Fold change vs veh, LRRCC1 / RFU, ARID1A / Fold change vs veh, ARID1A / RFU, ZNF146 / Fold change vs veh, ZNF146 / RFU, ZNF330 / Fold change vs veh, ZNF330 / RFU, GPN3 / Fold change vs veh, GPN3 / RFU, C9orf123 / Fold change vs veh, C9orf123 / RFU, N4BP2L2 / Fold change vs veh, N4BP2L2 / RFU, ARFIP1 / Fold change vs veh, ARFIP1 / RFU, FAM179B / Fold change vs veh, FAM179B / RFU, BCL10 / Fold change vs veh, BCL10 / RFU, UHRF1BP1L / Fold change vs veh, UHRF1BP1L / RFU, BET1 / Fold change vs veh, BET1 / RFU, CNOT2 / Fold change vs veh, CNOT2 / RFU, ZNF268 / Fold change vs veh, ZNF268 / Fold change vs veh, ZNF507 / RFU, DGCR2 / Fold change vs veh, DGCR2 / RFU, WDSUB1 / Fold change vs veh, WDSUB1 / Fold change vs veh, HSP90B1 /// MIR3652 / RFU, ADSS / Fold change vs veh, ADSS / RFU, GK / Fold change vs veh, GK / RFU, ZNF148 / Fold change vs veh, ZNF148 / RFU, TAF9 / Fold change vs veh, TAF9 / RFU, SLC1A5 / Fold change vs veh, SLC1A5 / RFU, SLMO2 / Fold change vs veh, SLMO2 / RFU, ABCC4 / Fold change vs veh, ABCC4 / RFU, LOC101060439 /// RAP1B / Fold change vs veh, LOC101060439 /// RAP1B / RFU, RFX7 / Fold change vs veh, RFX7 / RFU, GTPBP10 / Fold change vs veh, GTPBP10 / RFU, CNEP1R1 / Fold change vs veh, CNEP1R1 / RFU, BIVM-ERCC5 /// ERCC5 / Fold change vs veh, BIVM-ERCC5 /// ERCC5 / RFU, ILF3 / Fold change vs veh, ILF3 / RFU 11762660_at / Fold change /veh 11762660_at / RFU VCAN (11757783_s_at) / Fold change /veh VCAN (11757783_s_at) / RFU DDX43 (11728927_at) / Fold change /veh DDX43 (11728927_at) / RFU KRT8 (11758188_x_at) / Fold change /veh KRT8 (11758188_x_at) / RFU NKD1 (11759106_at) / Fold change /veh NKD1 (11759106_at) / RFU SRD5A1 (11742802_a_at) / Fold change /veh SRD5A1 (11742802_a_at) / RFU TPSAB1 /// TPSB2 (11721975_s_at) / Fold change /veh TPSAB1 /// TPSB2 (11721975_s_at) / RFU GSTM3 (11746129_a_at) / Fold change /veh GSTM3 (11746129_a_at) / RFU IL23R (11737362_x_at) / Fold change /veh IL23R (11737362_x_at) / RFU TMEM51 (11727254_a_at) / Fold change /veh TMEM51 (11727254_a_at) / RFU PIWIL2 (11732686_x_at) / Fold change /veh PIWIL2 (11732686_x_at) / RFU ORM1 (11744905_x_at) / Fold change /veh ORM1 (11744905_x_at) / RFU CCDC152 (11743942_at) / Fold change /veh CCDC152 (11743942_at) / RFU ECM1 (11717891_a_at) / Fold change /veh ECM1 (11717891_a_at) / RFU IL23R (11748794_a_at) / Fold change /veh IL23R (11748794_a_at) / RFU TNFAIP8L3 (11732012_x_at) / Fold change /veh TNFAIP8L3 (11732012_x_at) / RFU MBOAT4 (11741988_at) / Fold change /veh MBOAT4 (11741988_at) / RFU 11764193_at / Fold change /veh 11764193_at / RFU TMEM53 (11763286_at) / Fold change /veh TMEM53 (11763286_at) / RFU MAGEB2 (11727129_at) / Fold change /veh MAGEB2 (11727129_at) / RFU TMEM200A (11744735_a_at) / Fold change /veh TMEM200A (11744735_a_at) / RFU CCDC152 (11751479_a_at) / Fold change /veh CCDC152 (11751479_a_at) / RFU FAM211A (11726209_a_at) / Fold change /veh FAM211A (11726209_a_at) / RFU RGS16 (11746705_a_at) / Fold change /veh RGS16 (11746705_a_at) / RFU VCAN (11755009_s_at) / Fold change /veh VCAN (11755009_s_at) / RFU RHOB (11743442_s_at) / Fold change /veh RHOB (11743442_s_at) / RFU RGS16 (11720943_a_at) / Fold change /veh RGS16 (11720943_a_at) / RFU RGS16 (11720944_at) / Fold change /veh RGS16 (11720944_at) / RFU, VPS4B / Fold change vs veh, VPS4B / RFU, CREB1 / Fold change vs veh, CREB1 / RFU, DNAJC13 / Fold change vs veh, DNAJC13 / RFU, GNAQ / Fold change vs veh, GNAQ / RFU, CDK5R1 / Fold change vs veh, CDK5R1 / RFU, ZRANB3 / Fold change vs veh, ZRANB3 / RFU, CUL4A / Fold change vs veh, CUL4A / RFU, CCNY / Fold change vs veh, CCNY / RFU, UFL1 / Fold change vs veh, UFL1 / RFU, COG3 / Fold change vs veh, COG3 / RFU, DIAPH2 / Fold change vs veh, DIAPH2 / RFU, SKA2 / Fold change vs veh, SKA2 / RFU, AFF3 / Fold change vs veh, AFF3 / RFU, LMF1 / Fold change vs veh, LMF1 / RFU, IPO11 / Fold change vs veh, IPO11 / RFU, DFFB / Fold change vs veh, DFFB / RFU, FOXP1 / Fold change vs veh, FOXP1 / RFU, CARD8 / Fold change vs veh, CARD8 / RFU, STRN3 / Fold change vs veh, STRN3 / RFU, ADK / Fold change vs veh, ADK / RFU, RASSF2 / Fold change vs veh, RASSF2 / RFU, WIPF1 / Fold change vs veh, WIPF1 / RFU, LARP1B / Fold change vs veh, LARP1B / RFU, RASA1 / Fold change vs veh, RASA1 / RFU, RB1 / Fold change vs veh, RB1 / RFU, PPFIA1 / Fold change vs veh, PPFIA1 / RFU, MAT2A / Fold change vs veh, MAT2A / RFU, CCT5 / Fold change vs veh, CCT5 / RFU, WDR92 / Fold change vs veh, WDR92 / RFU, CUX1 / Fold change vs veh, CUX1 / RFU, TTC7A / Fold change vs veh, TTC7A / RFU, TMEM135 / Fold change vs veh, TMEM135 / RFU, DEPTOR / Fold change vs veh, DEPTOR / RFU, CPM / Fold change vs veh, CPM / RFU, DNAJB6 / Fold change vs veh, DNAJB6 / RFU, CACNA2D3 / Fold change vs veh, CACNA2D3 / RFU, DTX4 / Fold change vs veh, DTX4 / RFU, TFCP2 / Fold change vs veh, TFCP2 / RFU, GMCL1 /// GMCL1P1 / Fold change vs veh, GMCL1 /// GMCL1P1 / RFU, AEBP2 / Fold change vs veh, AEBP2 / RFU, SNHG1 /// SNORD22 /// SNORD25 /// SNORD26 /// SNORD27 /// SNORD28 /// SNORD29 /// SNORD31 / Fold change vs veh, SNHG1 /// SNORD22 /// SNORD25 /// SNORD26 /// SNORD27 /// SNORD28 /// SNORD29 /// SNORD31 / Fold change (Aza/veh), C12orf56 (ProbeSet 11735607_a_at) / Fold change (ACY-1035/veh), C12orf56 (ProbeSet 11735607_a_at) / Fold change (Aza/veh), FGFR1OP (ProbeSet 11751329_s_at) / Fold change (ACY-1035/veh), FGFR1OP (ProbeSet 11751329_s_at) / Fold change (Aza/veh), VPS36 (ProbeSet 11739960_a_at) / Fold change (ACY-1035/veh), VPS36 (ProbeSet 11739960_a_at) / RFU SYPL1 (11715823_x_at) / Fold change /veh SYPL1 (11715823_x_at) / RFU IGFBP7 (11715501_s_at) / Fold change /veh IGFBP7 (11715501_s_at) / RFU REEP3 (11722064_at) / Fold change /veh REEP3 (11722064_at) / RFU IGLL1 (11728026_x_at) / Fold change /veh IGLL1 (11728026_x_at): dose or concentration left out as unconfirmed
# Details: ProbeSet 11717308_a_at; LIST B
compound,measurement,value
Nc1ncn([C@@H]2O[C@H](CO)[C@@H](O)[C@H]2O)c(=O)n1 [azacitidine],"Fold change vs veh, WDR75",1.10
